Reference: the supplement of paper PMC5412046

What was measured:
[1] = test system: SB.msgc-1; assay: viability at highest tested concentration (MAXR) relative to DMSO; higher = less cytotoxic; conditions: SB.msgc-1 (sporadic gastric cancer)
Method in brief: (§1)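 Using a pintool, 23 nL of compound in DMSO was transferred at 11 threefold-diluted concentrations onto patient-derived gastric cancer cells, hereditary or sporadic, plated at 500 cells in 5 μL medium per 1536 well. CellTiter-Glo luminescence was read after 48 h. Each value is viability normalised to DMSO, either at the highest concentration or as trapezoidal area under the curve.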

[2] = test system: SB.mhdgc-1; assay: as above; conditions: SB.mhdgc-1 (hereditary c.1380delA CDH1 gastric cancer)
Method in brief: as §1

[3] = test system: SB.msgc-1; assay: area under the dose-response curve of % viability (trapezoidal, 11 doses) (% viability x log10 concentration); higher = less cytotoxic; conditions: SB.msgc-1 (sporadic gastric cancer)
Method in brief: as §1

[4] = test system: SB.mhdgc-1; assay: as above; conditions: SB.mhdgc-1 (hereditary c.1380delA CDH1 gastric cancer)
Method in brief: as §1

SMILES | viability [1] [%] | viability [2] [%] | area under the dose-response curve [3] | area under the dose-response curve [4]
CCCCc1ccc2[nH]c(NC(=O)OC)nc2c1 [Parbendazole] (top concentration 46.0829 µM) | 36.5 | 26.2 | 356 | 399
NCCS(=O)(=O)O [Taurine] (top concentration 46.0829 µM) | 101 | 79 | 578 | 549
CC(/C=C/C(=O)NO)=C\[C@@H](C)C(=O)c1ccc(N(C)C)cc1 [Trichostatin A] (top concentration 46.0829 µM) | 2.2 | 10.6 | 330 | 413
Cc1cccc(C)c1OCC(=O)N[C@@H](Cc1ccccc1)[C@@H](O)C[C@H](Cc1ccccc1)NC(=O)[C@H](C(C)C)N1CCCNC1=O [Lopinavir] (top concentration 46.0829 µM) | 53.2 | 53.2 | 497 | 453
COC(=O)C/1=C/O[C@@H](O)[C@H]\2[C@@H]1C\C=C2CO [Genipin] (top concentration 46.0829 µM) | 77.1 | 31.3 | 514 | 480
N=C(N)Nc1ccc(C(=O)Oc2ccc3cc(C(=N)N)ccc3c2)cc1 [Nafamostat mesilate] (top concentration 46.0829 µM) | 94.3 | 93.1 | 518 | 467
CC(=O)OCCN1C(=O)c2c(C)nc3ccc([S+](=O)([O-])N4CCOCC4)cc3c2C1=O [Ivachtin] (top concentration 46.0829 µM) | 120 | 102 | 541 | 504
O=P1(NCCCl)OCCCN1CCCl (centres undefined) [Ifomide] (top concentration 46.0829 µM) | 39 | 48.3 | 427 | 350
CC(C)(O)c1cc2nc(-c3cnc(N)nc3)nc(N3CCOCC3)c2s1 [GNE-493] (top concentration 46.0829 µM) | 43.9 | 32.3 | 384 | 319
COc1cc(OC)c(NC(=O)Nc2cc(C)on2)cc1Cl (top concentration 46.0829 µM) | 62.9 | 83.2 | 440 | 509
CNC(=O)N1\N=C(\C2=CC=C(N)C=C2)C3=CC4=C(OCO4)C=C3CC1C (centres undefined) (top concentration 46.0829 µM) | 42.3 | 72.1 | 489 | 476
CC(C)c1cccc(C(C)C)c1O [Propofol] (top concentration 46.0829 µM) | 111 | 54.6 | 529 | 504
COc1cc([C@H]2Oc3cc([C@H]4Oc5cc(O)cc(O)c5C(=O)[C@@H]4O)ccc3O[C@@H]2CO)ccc1O [Silybin] (top concentration 46.0829 µM) | 31.3 | 65.9 | 511 | 511
CC[C@@]1(O)C(=O)OCC/2=C1/C=C3\N(CC4=CC5=CC(=CC=C5N=C34)O)C2=O [10-hydroxycamptothecin] (top concentration 46.0829 µM) | 23.5 | 57.5 | 327 | 285
C[C@@]1(C(=O)Nc2ccc(F)nc2)CCCN1c1nc(Nc2cc(C3CC3)[nH]n2)c2cccn2n1 (top concentration 46.0829 µM) | 53 | 27.8 | 476 | 370
O=C(Nc1cc(Cl)cc2c1[nH]c1cnccc12)c1cccnc1 [PS-1145] (top concentration 46.0829 µM) | 54.8 | 36.6 | 508 | 442
O=C(NNC(=O)c1ccc(CN[S+](=O)([O-])c2ccc(F)c(Cl)c2)cc1)c1ccccc1 [TCN-201] (top concentration 46.0829 µM) | 98.1 | 103 | 495 | 554
Cn1c(CNc2ccc(C(=N)N)cc2)nc2cc(C(=O)N(CCC(=O)O)c3ccccn3)ccc21 [Dabigatran] (top concentration 23.0415 µM) | 65 | 28.4 | 526 | 470
CN(C)CCCN\C1=C\2C(=O)N(C)C(=O)\N=C2N(C)C3=C1C=CC=C3 (top concentration 46.0829 µM) | 55.9 | 55.1 | 518 | 433
Cn1cnc(N)c2ncnc1-2 [3-Methyladenine] (top concentration 46.0829 µM) | 7.12 | 81.8 | 402 | 455
COc1cc2c(cc1OC)CN(CCc1ccc(NC(=O)c3cccc4c(=O)c5cccc(OC)c5[nH]c34)cc1)CC2 [Elacridar] (top concentration 46.0829 µM) | 55.4 | 35.1 | 480 | 404
